pEC50: −log10 of the molar value.
system: HBV rcDNA in HepDE19 cells; assay: HepDE19 assay with bDNA quantitation of HBV rcDNA; type: cell-based, hepatitis B virus; conditions: HepDE19 assay, inhibition of rcDNA formation, bDNA quantitation; read-out: DE-19bDNA EC50

Row | Compound | pEC50
1 | CN(C(=O)c1cc2cc(F)ccn2c1)C1CNCc2[nH]c(=O)c3cc(F)c(F)cc3c21 (single isomer, unassigned) [Compound 162, N-(8,9-Difluoro-6-oxo-1,2,3,4,5,6-hexahydrobenzo[c][1,7]naphthyridin-1-yl)-7-fluoro-N-methylindolizine-2-carboxamide] | 4.86
2 | CN(C(=O)c1cc2cc(F)ccn2c1)C1CNCc2[nH]c(=O)c3cc(F)c(F)cc3c21 (single isomer, unassigned) [Compound 163, N-(8,9-Difluoro-6-oxo-1,2,3,4,5,6-hexahydrobenzo[c][1,7]naphthyridin-1-yl)-7-fluoro-N-methylindolizine-2-carboxamide] | 7.52
3 | CN(C(=O)c1cc(F)c(Br)c(F)c1)C1CNCc2[nH]c(=O)c3cc(F)c(F)cc3c21 (single isomer, unassigned) [Compound 164, 4-Bromo-N-(8,9-difluoro-6-oxo-1,2,3,4,5,6-hexahydrobenzo[c][1,7]naphthyridin-1-yl)-3,5-difluoro-N-methylbenzamide] | 5.54
4 | CN(C(=O)c1cc(F)c(Br)c(F)c1)C1CNCc2[nH]c(=O)c3cc(F)c(F)cc3c21 (single isomer, unassigned) [Compound 165, 4-Bromo-N-(8,9-difluoro-6-oxo-1,2,3,4,5,6-hexahydrobenzo[c][1,7]naphthyridin-1-yl)-3,5-difluoro-N-methylbenzamide] | 7.70
5 | CN(C(=O)c1cc(F)c(Br)c(F)c1)C1COCc2[nH]c(=O)c3cc(F)ccc3c21 (single isomer, unassigned) [Compound 166, 4-Bromo-3,5-difluoro-N-(8-fluoro-6-oxo-2,4,5,6-tetrahydro-1H-pyrano[3,4-c]isoquinolin-1-yl)-N-methylbenzamide] | 5.72
6 | CN(C(=O)c1cc(F)c(Br)c(F)c1)C1COCc2[nH]c(=O)c3cc(F)ccc3c21 (single isomer, unassigned) [Compound 167, 4-Bromo-3,5-difluoro-N-(8-fluoro-6-oxo-2,4,5,6-tetrahydro-1H-pyrano[3,4-c]isoquinolin-1-yl)-N-methylbenzamide] | 8.00
7 | CN(C(=O)c1cc(F)c(Cl)c(F)c1)C1CNCc2[nH]c(=O)c3cc(F)c(F)cc3c21 (single isomer, unassigned) [Compound 168, 4-Chloro-N-(8,9-difluoro-6-oxo-1,2,3,4,5,6-hexahydrobenzo[c][1,7]naphthyridin-1-yl)-3,5-difluoro-N-methylbenzamide] | 4.95
8 | CN(C(=O)c1cc(F)c(Cl)c(F)c1)C1CNCc2[nH]c(=O)c3cc(F)c(F)cc3c21 (single isomer, unassigned) [Compound 169, 4-Chloro-N-(8,9-difluoro-6-oxo-1,2,3,4,5,6-hexahydrobenzo[c][1,7]naphthyridin-1-yl)-3,5-difluoro-N-methylbenzamide] | 7.40
9 | CN(C(=O)c1cc(F)c(Br)c(F)c1)C1CNCc2[nH]c(=O)c3cc(F)ccc3c21 (single isomer, unassigned) [Compound 170, 4-Bromo-3,5-difluoro-N-(8-fluoro-6-oxo-1,2,3,4,5,6-hexahydrobenzo[c][1,7]naphthyridin-1-yl)-N-methylbenzamide] | 4.66
10 | CN(C(=O)c1cc(F)c(Br)c(F)c1)C1CNCc2[nH]c(=O)c3cc(F)ccc3c21 (single isomer, unassigned) [Compound 171, 4-Bromo-3,5-difluoro-N-(8-fluoro-6-oxo-1,2,3,4,5,6-hexahydrobenzo[c][1,7]naphthyridin-1-yl)-N-methylbenzamide] | 6.29
11 | CN(C(=O)c1cc(F)c(Cl)c(F)c1)C1COCc2[nH]c(=O)c3cc(F)ccc3c21 (single isomer, unassigned) [Compound 174, 4-Chloro-3,5-difluoro-N-(8-fluoro-6-oxo-2,4,5,6-tetrahydro-1H-pyrano[3,4-c]isoquinolin-1-yl)-N-methylbenzamide] | 5.29
12 | CN(C(=O)c1cc(F)c(Cl)c(F)c1)C1COCc2[nH]c(=O)c3cc(F)ccc3c21 (single isomer, unassigned) [Compound 175, 4-Chloro-3,5-difluoro-N-(8-fluoro-6-oxo-2,4,5,6-tetrahydro-1H-pyrano[3,4-c]isoquinolin-1-yl)-N-methylbenzamide] | 7.52
13 | CN(C(=O)c1cc(F)c(C(F)F)c(F)c1)C1COCc2[nH]c(=O)c3cc(F)ccc3c21 (single isomer, unassigned) [Compound 178, 4-(Difluoromethyl)-3,5-difluoro-N-(8-fluoro-6-oxo-1,4,5,6-tetrahydro-2H-pyrano[3,4-c]isoquinolin-1-yl)-N-methylbenzamide] | 5.13
14 | CN(C(=O)c1cc(F)c(C(F)F)c(F)c1)C1COCc2[nH]c(=O)c3cc(F)ccc3c21 (single isomer, unassigned) [Compound 179, 4-(Difluoromethyl)-3,5-difluoro-N-(8-fluoro-6-oxo-1,4,5,6-tetrahydro-2H-pyrano[3,4-c]isoquinolin-1-yl)-N-methylbenzamide] | 7.30
15 | CN(C(=O)c1cc2c(C(F)F)cccc2[nH]1)C1COCc2[nH]c(=O)c3cc(F)ccc3c21 (single isomer, unassigned) [Compound 181, 4-(Difluoromethyl)-N-(8-fluoro-6-oxo-1,4,5,6-tetrahydro-2H-pyrano[3,4-c]isoquinolin-1-yl)-N-methyl-1H-indole-2-carboxamide] | 5.26
16 | CN(C(=O)c1cc2c(C(F)F)cccc2[nH]1)C1COCc2[nH]c(=O)c3cc(F)ccc3c21 (single isomer, unassigned) [Compound 182, 4-(Difluoromethyl)-N-(8-fluoro-6-oxo-1,4,5,6-tetrahydro-2H-pyrano[3,4-c]isoquinolin-1-yl)-N-methyl-1H-indole-2-carboxamide] | 6.12
17 | CN(C(=O)c1cc(F)c(C(F)F)c(F)c1)C1CNCc2[nH]c(=O)c3cc(F)c(F)cc3c21 (single isomer, unassigned) [Compound 184, N-(8,9-Difluoro-6-oxo-1,2,3,4,5,6-hexahydrobenzo[c][1,7]naphthyridin-1-yl)-4-(difluoromethyl)-3,5-difluoro-N-methylbenzamide] | 7.15
18 | CN(C(=O)c1cc(F)c(C(F)F)c(F)c1)C1CNCc2[nH]c(=O)c3cc(F)ccc3c21 (single isomer, unassigned) [Compound 185, 4-(Difluoromethyl)-3,5-difluoro-N-(8-fluoro-6-oxo-1,2,3,4,5,6-hexahydrobenzo[c][1,7]naphthyridin-1-yl)-N-methylbenzamide] | 4.62
19 | CN(C(=O)c1cc(F)c(C(F)F)c(F)c1)C1CNCc2[nH]c(=O)c3cc(F)ccc3c21 (single isomer, unassigned) [Compound 186, 4-(Difluoromethyl)-3,5-difluoro-N-(8-fluoro-6-oxo-1,2,3,4,5,6-hexahydrobenzo[c][1,7]naphthyridin-1-yl)-N-methylbenzamide] | 6.70
20 | CN(C(=O)c1cc2c(C(F)F)cccc2[nH]1)C1CNCc2[nH]c(=O)c3cc(F)c(F)cc3c21 (single isomer, unassigned) [Compound 207, N-(8,9-Difluoro-6-oxo-1,2,3,4,5,6-hexahydrobenzo[c][1,7]naphthyridin-1-yl)-4-(difluoromethyl)-N-methyl-1H-indole-2-carboxamide] | 5.25
21 | CN(C(=O)c1cc2c(C(F)F)cccc2[nH]1)C1CNCc2[nH]c(=O)c3cc(F)c(F)cc3c21 (single isomer, unassigned) [Compound 208, N-(8,9-Difluoro-6-oxo-1,2,3,4,5,6-hexahydrobenzo[c][1,7]naphthyridin-1-yl)-4-(difluoromethyl)-N-methyl-1H-indole-2-carboxamide] | 7.52
22 | CN(C(=O)c1cc2c(C(F)F)cccc2[nH]1)C1CNCc2[nH]c(=O)c3cc(F)ccc3c21 (single isomer, unassigned) [Compound 209, N-(8-Fluoro-6-oxo-1,2,3,4,5,6-hexahydrobenzo[c][1,7]naphthyridin-1-yl)-4-(difluoromethyl)-N-methyl-1H-indole-2-carboxamide] | 5.36
23 | CN(C(=O)c1cc2c(C(F)F)cccc2[nH]1)C1CNCc2[nH]c(=O)c3cc(F)ccc3c21 (single isomer, unassigned) [Compound 210, N-(8-Fluoro-6-oxo-1,2,3,4,5,6-hexahydrobenzo[c][1,7]naphthyridin-1-yl)-4-(difluoromethyl)-N-methyl-1H-indole-2-carboxamide] | 7.40
24 | CN(C(=O)c1cc2cc(F)c(C(F)F)cc2[nH]1)C1COCc2[nH]c(=O)c3cc(F)ccc3c21 (single isomer, unassigned) [Compound 217, 6-(Difluoromethyl)-5-fluoro-N-(8-fluoro-6-oxo-1,4,5,6-tetrahydro-2H-pyrano[3,4-c]isoquinolin-1-yl)-N-methyl-1H-indole-2-carboxamide] | 6.06
25 | CN(C(=O)c1cc2cc(F)c(C(F)F)cc2[nH]1)C1COCc2[nH]c(=O)c3cc(F)ccc3c21 (single isomer, unassigned) [Compound 218, 6-(Difluoromethyl)-5-fluoro-N-(8-fluoro-6-oxo-1,4,5,6-tetrahydro-2H-pyrano[3,4-c]isoquinolin-1-yl)-N-methyl-1H-indole-2-carboxamide] | 7.52
26 | CN(C(=O)c1cc2cc(F)c(C(F)F)cc2[nH]1)C1CNCc2[nH]c(=O)c3cc(F)c(F)cc3c21 (single isomer, unassigned) [Compound 220, N-(8,9-Difluoro-6-oxo-1,2,3,4,5,6-hexahydrobenzo[c][1,7]naphthyridin-1-yl)-6-(difluoromethyl)-5-fluoro-N-methyl-1H-indole-2-carboxamide] | 5.61

same assay, conditions: Hepatitis B virus, HepDE19, HepDE19 assay, inhibition of rcDNA formation, bDNA quantitation; read-out: DE-19bDNA EC50

Row | Compound | pEC50
27 | CN(C(=O)c1cc(F)c(Cl)c(F)c1)C1CNCc2[nH]c(=O)c3cc(F)ccc3c21 (single isomer, unassigned) [Compound 176, 4-Chloro-3,5-difluoro-N-(8-fluoro-6-oxo-1,2,3,4,5,6-hexahydrobenzo[c][1,7]naphthyridin-1-yl)-N-methylbenzamide] | 4.71
28 | CN(C(=O)C(N)c1ccc(Cl)cc1)[C@@H]1COCc2[nH]c(=O)c3cc(F)c(F)cc3c21 (single isomer, unassigned) [Compound 199] | 4.83
29 | CN(C(=O)C(N)c1cccc(Cl)c1)[C@@H]1COCc2[nH]c(=O)c3cc(F)c(F)cc3c21 (single isomer, unassigned) [Compound 202] | 4.80

Reference: patent US20240228504A1, “SUBSTITUTED TRICYCLIC AMIDES, ANALOGUES THEREOF, AND METHODS USING SAME” (Arbutus Biopharma Corporation, priority 2020, published 2024)
